According to ChEMBL document CHEMBL1138775, “Soft docking and multiple receptor conformations in virtual screening” (J Med Chem, 2004):

Each compound was assayed against T1, Aldo-keto reductase family 1 member B1 (Sus scrofa, UniProt P80276) (assay: Inhibition of aldose reductase from pig lenses; no inhibition).
Compound `CC(OCc1ccccc1)C(NC(=O)OCc1ccccc1)C(=O)O` (stereo not drawn) has an IC50 of over 300 µM.
For `CC(OCc1ccc(Cl)cc1)C(NC(=O)CC(C)(C)C)C(=O)O` (stereo not drawn), the IC50 was over 400 µM.

The compounds below were run against T1, Aldo-keto reductase family 1 member B1 (assay: Inhibition of aldose reductase from pig lenses).
Work on `O=C(O)Cc1cn(Cc2cccc(Cl)c2)c2ccccc12` yielded an IC50 of 14 µM.
Compound `COc1ccc2c(C(=S)N(C)CC(=O)O)cccc2c1C(F)(F)F` [TOLRESTAT] has an IC50 of 0.038 µM.
`O=C(O)C1CC(=O)N(Cc2ccc(Cl)cc2)C1` (stereo not drawn) was tested, and the IC50 was 8 µM.
Work on `O=C(O)c1nnn(-c2cccc(Br)c2)c1-c1ccccc1` yielded an IC50 of 274 µM.
Compound `Clc1ccc(CN(Cc2ccc(Cl)cc2)c2nnn[nH]2)cc1` has an IC50 of 336 µM.
Work on `O=C1NC(=O)[C@@]2(CCOc3ccc(F)cc32)N1` [SORBINIL] yielded an IC50 of 1.1 µM.
